Assay results from US8299125B2, “Water-soluble triterpenephenol compounds having antitumor activity and the preparation thereof” (Shanghai Huatuo Medical Science Co., Ltd., priority 2007, dated 2012).

How the values were obtained:
[1] = tested on: human prostate cancer cell PC-3 transplanted into nude mice; assay: Therapeutic activity against human prostate cancer cell PC-3 transplanted into nude mice; assay type: in vivo, BALB/Ca nude mice; details: for TV d24 / T/C (%) / RTV / TV d0: dl/3.5 w, i.p; for TV d24: 24th day; for T/C (%): relative tumor proliferation rate; for RTV: relative tumor volume Vt/V0; for TV d0: tumor volume at start of administration
Description: The therapeutic activity experiment of compound A against human prostate cancer cell PC-3 transplanted into nude mice was conducted by SHANGHAI INSTITUTE OF MATERIA MEDICA, CHINESE ACADEMY OF SCIENCES, under assignment by SHANGHAI HUATUO MEDICAL SCIENCE CO., LTD.
Tested Compound: Compound A.
Positive control medicine: mitomycin (MMC), produced by Kyowa Hakko kogyo Co Ltd. (batch no: 468AEF, 2 mg/bottle), was diluted with physiological saline when used.
Animal and transplanted tumor: BALB/Ca nude mice, female, 45˜50 days old, weight 20±1 g. The transplanted tumor of human prostate cancer cell PC-3 in nude mice was established by inoculating the nude mice with PC-3 cell line subcutaneously.
TV (mm^3) is the tumor volume, and the calculation equation is: TV=½×a×b^2, wherein a and b represent length and width respectively. d0 is the tumor volume measured as medicine is administered in divided cages, and d24 is the tumor volume on the 24th day of the experiment. RTV is the relative tumor volume, and the calculation equation is RTV=Vt/V0, wherein V0 is the tumor volume measured as medicine is administered in divided cages (i.e. d0), Vt is the tumor volume measured every time. The evaluation index of the antitumor activity is the relative tumor proliferation rate T/C (%) and the calculation equation is as follows: T/C(%)=(TRTV/CRTV)×100
TRTV: RTV of the therapeutic group; CRTV: RTV of the negative control group.
Evaluation standard of therapeutic effect: T/C (%)>60% is ineffective, T/C (%)≦60 and with a statistic result of p<0.05 represents effective.

[2] = Stability assay of compound A at meta-acidic or meta-alkalescence condition (HPLC peak area); assay type: physicochemical; details: 2 hours
Description: (§1) Experimental conditions: the chromatography column was DIKMA C18 column (5μ, 250×4.6 mm); The detector was Waters 3487 detector; the detection wavelength was 210 nm; the liquid phase was acetonitrile-0.02M KH2PO4 (which contains 1‰ tetrabutylammonium hydroxide, and the pH was adjusted to 7.35 with triethylamine) (35:65); and the flow speed was 1 ml/min.
Experimental method: the compound A was formulated into a solution of about 5 mg/ml with distilled water. 0.1 ml of the solution was added into the following solutions respectively: a) 1 ml of HCl diluted solution with a pH of 2; b) 1 ml of distilled water; c) 1 ml of sodium carbonate diluted solution with a pH of 10. After left standing at room temperature for 2 hours, 0.1 ml of each the above three kinds of solution were added into 1 ml of liquid phase solution, respectively, and 20 μl was sampled and injected into the chromatograph. The peak areas were then determined and calculated.

[3] = Stability assay of compound A during the preparation of the injection (HPLC peak area); assay type: physicochemical; details: for peak area: 210 nm
Description: as §1, with “the” for “The”, “Agilent 1100 DAD” for “Waters 3487”, “1‰ of” for “1‰”, “(35:65);” for “(35:65); and”, “ml/min; and sample amount was 20 μl.” for “ml/min.”
Sample: the solutions in each step of the preparation of the injection of compound A in example 6
Experimental data: the peak area of the solution before filtering with micro-pore filter film was 1084.4, the peak area after filtering was 1078.2, and the peak area after the moist heat sterilization was 1072.9.

| SMILES | TV d24 ([1]; 3 mg/kg) [mm^3] | T/C (%) ([1]; 3 mg/kg) | RTV ([1]; 3 mg/kg) | TV d0 ([1]; 3 mg/kg) [mm^3] | inhibition of the growth of human prostate cancer cell PC-3 transplanted into nude mice ([1]; mouse, in vivo) | Percentage (based on the peak area in distilled water taken as 100%) ([2]; Distilled water (reference), room temperature) [%] | peak area ([2]; Distilled water, room temperature) | stability at both meta-acidic condition and meta-alkalescence condition ([2]; pH 2 and pH 10, room temperature) | peak area ([2]; pH = 2 (HCl diluted solution), room temperature) | Percentage (based on the peak area in distilled water taken as 100%) ([2]; pH = 2, room temperature) [%] | peak area ([2]; pH = 10 (sodium carbonate diluted solution), room temperature) | Percentage (based on the peak area in distilled water taken as 100%) ([2]; pH = 10, room temperature) [%] | stability during the injection preparation [3] | peak area ([3]; after filtering) | peak area ([3]; after the moist heat sterilization (116° C., 30 min)) | peak area ([3]; solution before filtering with micro-pore filter film) | TV d24 ([1]; 5 mg/kg) [mm^3] | T/C (%) ([1]; 5 mg/kg) | RTV ([1]; 5 mg/kg) | TV d0 ([1]; 5 mg/kg) [mm^3] |
| --- | --- | --- | --- | --- | --- | --- | --- | --- | --- | --- | --- | --- | --- | --- | --- | --- | --- | --- | --- | --- |
| Cc1c(O)c(O)cc2c1C(S(=O)(=O)[O-])C=C1[C@@]2(C)CC[C@@]2(C)[C@@H]3C[C@](C)(C(=O)O)CC[C@]3(C)CC[C@]12C.[Na+] (some centres unmarked) [Compound A] | 501 ± 133 | 40.2 | 3.8 ± 1.1 | 135 ± 16 | marked inhibition effects | 100 | 1206926 | good stability | 1247385 | 103.4 | 1232216 | 102.1 | good | 1078.2 | 1072.9 | 1084.4 | – | – | – | – |
| CO[C@@]12[C@H](COC(N)=O)C3=C(C(=O)C(C)=C(N)C3=O)N1C[C@@H]1N[C@@H]12 [mitomycin, reference compound] | – | – | – | – | – | – | – | – | – | – | – | – | – | – | – | – | 400 ± 224 | 33.7 | 3.1 ± 1.8 | 135 ± 42 |
